# Values of other authors, collected in patent US20130039957A1, “CONTROLLED RELEASE PHARMACEUTICAL COMPOSITIONS OF BRIVARACETAM” (LUPIN LIMITED, priority 2010, published 2013).
# Tests used:
# [1] = molecular target: synaptic vesicle protein 2A (SV2A) (Homo sapiens, UniProt Q7L0J3); conditions: preclinical studies
# [2] = tested on: neuronal voltage-dependent sodium channels; conditions: preclinical studies
# [3] = healthy subjects
# synaptic vesicle protein 2A (SV2A), sequence (Q7L0J3 whole entry, species assumed): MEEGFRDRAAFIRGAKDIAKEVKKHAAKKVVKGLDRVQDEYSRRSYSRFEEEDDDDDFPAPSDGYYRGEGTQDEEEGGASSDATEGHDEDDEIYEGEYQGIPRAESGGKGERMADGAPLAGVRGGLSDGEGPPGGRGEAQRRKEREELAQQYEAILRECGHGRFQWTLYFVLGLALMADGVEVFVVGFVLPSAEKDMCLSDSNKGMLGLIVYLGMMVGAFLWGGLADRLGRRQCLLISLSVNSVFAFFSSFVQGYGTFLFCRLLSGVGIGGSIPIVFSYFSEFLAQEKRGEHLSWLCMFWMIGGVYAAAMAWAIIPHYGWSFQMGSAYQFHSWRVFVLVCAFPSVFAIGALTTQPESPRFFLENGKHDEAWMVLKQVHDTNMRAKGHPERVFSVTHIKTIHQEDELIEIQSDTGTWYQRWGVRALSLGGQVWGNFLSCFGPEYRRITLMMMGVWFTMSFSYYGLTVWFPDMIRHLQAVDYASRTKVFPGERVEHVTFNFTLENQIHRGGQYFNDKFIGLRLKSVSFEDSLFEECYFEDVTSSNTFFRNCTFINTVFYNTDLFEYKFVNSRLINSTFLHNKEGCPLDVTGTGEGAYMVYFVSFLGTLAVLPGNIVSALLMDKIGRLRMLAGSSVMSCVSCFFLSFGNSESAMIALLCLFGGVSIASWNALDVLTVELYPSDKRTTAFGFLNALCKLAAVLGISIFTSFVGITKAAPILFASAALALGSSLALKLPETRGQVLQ
structure (smiles),measurement,setting,value
CCC[C@@H]1CC(=O)N([C@@H](CC)C(N)=O)C1 [Brivaracetam],water solubility,,700 mg/mL
same,affinity for synaptic vesicle protein 2A (SV2A),[1],showed affinity
same,inhibitory activity at neuronal voltage-dependent sodium channels,[2],has inhibitory activity
same,half life,[3],7.6 ± 1.7 h
